{
  "source": "patent US20260041704A1",
  "about": "“COMPOSITIONS AND METHODS FOR TREATING SICKLE CELL DISEASE” (Beren Therapeutics P.B.C., priority 2022, published 2026)",
  "assay_type_in_all_cases": "cell-based, human",
  "key": {"[1]": {"tested_on": "RBCs from sickle cell disease patients (SS)", "experiment": "Red blood cell deformability by ektacytometry (LORRCA), RBCs from sickle cell patients", "text": "(§1) Subjects and blood preparation: 17 sickle cell patients (24.1 +/-12.1 years old) and 6 healthy individuals (26 +/−3.9 years old) were included in this study. 12 sickle cell patients were at steady state at the time of inclusion and 5 had vaso-occlusive crisis the day of inclusion. 14 patients were under hydroxyurea therapy. Blood was drawn into EDTA tubes, centrifuged, and plasma and buffy coat were removed and kept until utilization. RBCs were washed in PBS 1X (Phosphate Buffered Saline, 1X Solution) and resuspended at hematocrit 20% either in PBS 1X or in autologous plasma. Then RBCs were incubated for 1 h at 37° C, with 3 or 5 mM 2-HPBCD or vehicle for control condition (Ctrl). The vehicle for control condition was the PBS IX or plasma respectively, i.e., without addition of the 2-HPBCD.\nRed blood cell deformability: RBC deformability was assessed at 37° C, at shear stresses ranging from 0.3 to 30 Pa by laser diffraction analysis (ektacytometry), using a Laser-assisted Optical Rotational Cell Analyzer (LORRCA MaxSis, RR Mechatronics. Hoorn. The Netherlands). 10 μL of RBC suspensions were mixed with 1 ml polyvinylpyrrolidone (PVP: viscosit≈30 cP) and sheared into a Couette system. A laser beam was directed through the samples. The shear stress-induced deformation of RBCs affected the laser beam's diffraction pattern, which was measured by the LORRCA software, and used to calculate an elongation index. A higher elongation index represents greater RBC deformability. The Lineweaver-Burke method was used to calculate the maximum elongation index at infinite shear stress (EImax) and the shear stress required to reach half of this maximum elongation index (SS1/2).\nStatistical analysis: effects of treatments on deformability parameters (EImax and SS1/2) and free hemoglobin concentration were analyzed by using a paired t-test or Wilcoxon test when appropriate. Comparisons of RBC deformability between healthy individuals and patients were achieved using Student's t-test. A p value<0.05 was considered as significant. Analyses were performed with Graphpad Prism 9 software."}, "[2]": {"tested_on": "RBCs from healthy individuals (AA)", "experiment": "Free hemoglobin assay (Drabkin's reagent) in supernatants, RBCs from healthy individuals", "settings": "5 mM 2-HPBCD, 1 h incubation, RBCs from healthy control individuals (AA) in PBS, FIG. 4"}, "[3]": {"tested_on": "RBCs from sickle cell disease patients (SS)", "experiment": "Free hemoglobin assay (Drabkin's reagent) in supernatants, RBCs from sickle cell patients", "settings": "1 h incubation"}, "[4]": {"tested_on": "RBCs from healthy individuals (AA)", "experiment": "Red blood cell deformability by ektacytometry (LORRCA), RBCs from healthy individuals", "settings": "5 mM 2-HPBCD, 1 h at 37° C, RBCs from healthy controls (AA) in PBS", "text": "as §1, with “The vehicle for control condition was the PBS IX or plasma respectively, i.e., without addition of the 2-HPBCD.” left out\nRed blood cell deformability: RBC deformability was assessed at 37° C, at shear stresses ranging from 0.3 to 30 Pa by laser diffraction analysis (ektacytometry), using a Laser-assisted Optical Rotational Cell Analyzer (LORRCA MaxSis, RR Mechatronics. Hoorn. The Netherlands). […] The shear stress-induced deformation of RBCs affected the laser beam's diffraction pattern, which was measured by the LORRCA software, and used to calculate an elongation index. […]\nStatistical analysis: effects of treatments on deformability parameters (EImax and SS1/2) and free hemoglobin concentration were analyzed by using a paired t-test or Wilcoxon test when appropriate. […]"}},
  "data": [
    {"smiles": "CC(O)COC[C@H]1O[C@@H]2O[C@H]3[C@H](O)[C@@H](O)[C@@H](O[C@H]4[C@H](O)[C@@H](O)[C@@H](O[C@H]5[C@H](O)[C@@H](O)[C@@H](O[C@H]6[C@H](O)[C@@H](O)[C@@H](O[C@H]7[C@H](O)[C@@H](O)[C@@H](O[C@H]8[C@H](O)[C@@H](O)[C@@H](O[C@H]1[C@H](O)[C@H]2O)O[C@@H]8COCC(C)O)O[C@@H]7COCC(C)O)O[C@@H]6COCC(C)O)O[C@@H]5COCC(C)O)O[C@@H]4COCC(C)O)O[C@@H]3COCC(C)O", "note": "(stereo partly drawn) [2-HPBCD, 2-hydroxypropyl-β-cyclodextrin]", "values": [
      {"measurement": "effect on deformability of SCD RBCs", "setting": "[1]; 3 mM or 5 mM 2-HPBCD", "value": "increased deformability"},
      {"measurement": "change of sickle cell RBCs EImax vs control", "setting": "[1]; 5 mM 2-HPBCD, 1 h at 37° C, incubated in PBS, p<0.01, FIG. 2A", "value": "+12.7%"},
      {"measurement": "change of sickle cell RBC SS1/2 vs control", "setting": "[1]; 5 mM 2-HPBCD, 1 h at 37° C, incubated in PBS, p<0.5 as printed, FIG. 2B", "value": "−8.1", "unit": "%"},
      {"measurement": "effect on SS1/2 in sickle cell RBCs", "setting": "[1]; 5 mM 2-HPBCD, 1 h at 37° C, incubated in plasma, FIG. 2D", "value": "did not significantly change"},
      {"measurement": "change of sickle cell RBC EImax vs control", "setting": "[1]; 5 mM 2-HPBCD, 1 h at 37° C, incubated in plasma, p<0.01, FIG. 2C", "value": "+12.4%"},
      {"measurement": "effect on free hemoglobin release in the supernatant", "setting": "[2]", "value": "no significant effect"},
      {"measurement": "effect on free hemoglobin released by RBCs", "setting": "[3]; 3 mM 2-HPBCD, RBCs from sickle cell disease patients in PBS, p<0.05, FIG. 6A", "value": "significantly decreased"},
      {"measurement": "change of free hemoglobin released by RBCs vs control", "setting": "[3]; 5 mM 2-HPBCD, RBCs from sickle cell anemia patients in PBS, p<0.05, FIG. 5A", "value": "−6.4", "unit": "%"},
      {"measurement": "change of free hemoglobin released by RBCs vs control, patients with low basal free hemoglobin removed", "setting": "[3]; 5 mM 2-HPBCD, SS RBCs with high basal free hemoglobin content in PBS, p<0.01, FIG. 5B", "value": "−29.9", "unit": "%"},
      {"measurement": "effect on SS1/2 (printed SSin)", "setting": "[4]; FIG. 1B", "value": "no significant effect"},
      {"measurement": "change of RBC EImax vs control", "setting": "[4]; p<0.05, FIG. 1A", "value": "+4.4%"}
    ]}
  ]
}
